Experimental data as given in patent US20020041848A1, “Chemically Specific Imaging Of Tissue” (priority 1999, published 2002).

Assays:
lab rats = conditions: cited from earlier work
human finger tip = conditions: in vivo, 5 min
Procedure: Raman spectra were collected from a human finger tip irradiated with a near-infrared laser beam using conventional equipment, including a light collection and analysis system. Test agents were applied to the finger tip and allowed to penetrate the tissue for 5 minutes before rinsing the finger tip with acetone.

depth of penetration indicated by persistence of peak near 2200 cm^-1 (human finger tip) | SMILES | symptoms at about double the 10-15% body water replacement (lab rats; lab rats, continuous regimen of D2O) | share of total body water weight replaced by D2O below which there are no signs of ingestion or poisoning (lab rats; rat, in vivo)
 | [2H]O[2H] [D2O] | severe | 10-15%
1-2 mm | [2H]C([2H])([2H])C([2H])([2H])C([2H])([2H])C([2H])([2H])C([2H])([2H])C([2H])([2H])C([2H])([2H])C([2H])([2H])C([2H])([2H])C([2H])([2H])C([2H])([2H])C([2H])([2H])C([2H])([2H])C([2H])([2H])C([2H])([2H])C([2H])([2H])C([2H])([2H])C(=O)O [stearic acid-d35] |  | 
